Measurements as given in US20190054051A1, “DOPA Formulations for Treatments of Parkinson's Disease” (The Board of Trustees of the Leland Stanford Junior …, priority 2017, published 2019).

Assays:
[1] = test system: 6-OHDA lesioned mice; test: Cylinder test, contralateral paw usage (akinesia); type: in vivo; settings: single dose equivalent to 5 mg/Kg DOPA; DOPA = L-DOPA/Benserazide 5 and 10 mg/Kg s/c
[2] = test system: p38; test: Western blot of phospho p38 and total p38 in striatum; type: in vivo, mice
Description: After behavioral testing, mice again received their assigned injection and then, 45 minutes later, were decapitated under anesthesia. Tissue samples were processed as follows. Briefly, the brain was dissected, rapidly frozen on dry ice, and stored at −80° C. Striatal tissue was collected from 100 μm coronal slices cut at the level of striatum using a cryostat (Leica CM1950, Leica Biosystems Inc, Buffalo Groove, Ill.). Striatal samples from the intact and the lesioned hemisphere were separately collected in 150p1 of lysis solution (Totally RNA, Ambion, Austin, Tex.). Care was taken to make sure that the tissue samples were collected from similar regions in all the brain samples analyzed, since there are differences in the expression of GRKs from rostral to caudal CPu. […]
Western blots were quantified using band densitometry in Image J software (NIH version). […] Results are represented as group mean±SEM and analyzed using one-way or repeated-measures ANOVA (RM-ANOVA), with post hoc Bonferroni tests. The mouse cylinder test was analyzed with RM-ANOVA, with group (DOPA and DOPA-ranitidine formulations) as a between-group factor and saline vs. DOPA treatment as a within-group factor. AIMs scores were analyzed using the Kruskal Wallis test for pre-testing (DOPA injected animals) and the Mann-Whitney U test for the post-testing sessions (DOPA vs DOPA-ranitidine formulations). […]

[3] = test system: ChAT; test: ChAT immunoreactivity (fluorescence intensity) in cholinergic interneurons; parameters: species or system mice; settings: mouse, in vivo
Description: Immunohistochemical analysis was performed with commonly known procedures. Mice were transcardially perfused with ice-cold 4% paraformaldehyde in PBS 45 minutes after challenge with L-DOPA or DOPA-ranitidine formulations. The brain was dissected out, post-fixed in 4% PFA overnight at 4° C., and cryoprotected using 30% sucrose in PBS. Cryoprotected brains were stored at −80° C. For TH immunostaining 30 μm coronal sections were taken around both CPu and substantia nigra, to examine dopaminergic denervation at the level of striatum and neuronal cell body loss at the level of substantia nigra. For pERK, ChAT, FoxP and AFos B expression, only coronal sections at the level of striatum was used. Free-floating coronal sections were blocked in blocking buffer (PBS with 2% BSA, 0.3% TritonX-100) for 1 hr at room temperature with gentle rocking. Sections were then transferred to incubation solution (PBS with 1% BSA, 0.03% TritonX-100) and the respective primary antibody as shown in table 1 and incubated at 4° C. for 24-48 hrs with gentle shaking. The sections were mounted with fluorescein or DAPI containing mounting media and serial z stack images were taken using Zeiss laser scanning confocal microscope LSM 800 at Stanford Cell Sciences Imaging facility. […]

[4] = test system: animal models of PD; settings: previously reported; cited from earlier work

SMILES | contralateral paw usage compared to saline treatment [1] | p38 phosphorylation in the lesioned hemisphere [2] | ChAT immunoreactivity (FI), lesioned side versus intact side [3] | L-DOPA induced dyskinesia (dyskinetic behavior following DOPA treatment) [4]
N[C@@H](Cc1ccc(O)c(O)c1)C(=O)O [L-DOPA, L-3,4-dihydroxyphenylalanine] | significantly increased contralateral paw usage | increased in the lesioned hemisphere only after DOPA treatment | slightly lower on the lesioned side than the intact side | 
CN/C(=C\[N+](=O)[O-])NCCSCc1ccc(CN(C)C)o1 [Ranitidine, N-(2-[(5-[(dimethylamino)methyl]furan-2-yl)methylthio]ethyl)-N′-methyl-2-nitroethene-1,1-diamine] |  |  |  | suppress LID
